From ChEMBL document CHEMBL1201862, “PubChem BioAssay data set” (2004)
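Cells were grown in 96-well plates and exposed to each compound for 48 hours at five concentrations; endpoints were interpolated linearly between bracketing concentrations, or set to the highest concentration if not reached. The concentration for 50% growth inhibition is given as GI50.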 Calls of active or inactive are those of the source. No stated cut-off is given here; in the data, active = GI50 up to about 1.1 µM and inactive = higher.

Tests used:
Experiment in all cases: NCI anticancer screen, dose series, 48 h
A498 = system: A498
A549 = system: A549
CAKI-1 = system: CAKI-1
CCRF-CEM = system: CCRF-CEM
COLO 205 = system: COLO 205
DLD-1 = system: DLD-1
DMS-114 = system: DMS-114
DMS-273 = system: DMS-273
EKVX = system: EKVX
HCC 2998 = system: HCC 2998
HCT-116 = system: HCT-116
HCT-15 = system: HCT-15
HL-60 = system: HL-60
HOP-18 = system: HOP-18
HOP-62 = system: HOP-62
HOP-92 = system: HOP-92
HT-29 = system: HT-29
IGROV-1 = system: IGROV-1
K562 = system: K562
KM-20L2 = system: KM-20L2
KM12 = system: KM12
LOX IMVI = system: LOX IMVI
M19-MEL = system: M19-MEL
MCF7 = system: MCF7
MOLT-4 = system: MOLT-4
NCI-H226 = system: NCI-H226
NCI-H23 = system: NCI-H23
NCI-H460 = system: NCI-H460
NCI-H522 = system: NCI-H522
NCI/ADR-RES = system: NCI/ADR-RES
OVCAR-3 = system: OVCAR-3
OVCAR-4 = system: OVCAR-4
OVCAR-5 = system: OVCAR-5
OVCAR-8 = system: OVCAR-8
RPMI-8226 = system: RPMI-8226
RXF 393 = system: RXF 393
SF-268 = system: SF-268
SF-295 = system: SF-295
SF-539 = system: SF-539
SK-MEL-28 = system: SK-MEL-28
SK-MEL-2 = system: SK-MEL-2
SK-MEL-5 = system: SK-MEL-5
SK-OV-3 = system: SK-OV-3
SN12C = system: SN12C
SNB-19 = system: SNB-19
SNB-75 = system: SNB-75
SNB-78 = system: SNB-78
SW-620 = system: SW-620
U-251 = system: U-251
UACC-257 = system: UACC-257
UACC-62 = system: UACC-62
UO-31 = system: UO-31
XF498 = system: XF498
Malme-3M = system: Malme-3M

O=C1C2=C(C3=NCCc4c[nH]c1c43)c1c(Br)cc(Br)cc1CCN2
GI50 (A498): 11200 nM (inactive) | GI50 (A549): 2730 nM (inactive) | GI50 (CAKI-1): 13400 nM (inactive) | GI50 (CCRF-CEM): 2580 nM (inactive) | GI50 (COLO 205): 1290 nM (inactive) | GI50 (DLD-1): 1790 nM (inactive) | GI50 (DMS-114): 2020 nM (inactive) | GI50 (DMS-273): 3120 nM (inactive) | GI50 (EKVX): 3010 nM (inactive) | GI50 (HCC 2998): 2010 nM (inactive) | GI50 (HCT-116): 1840 nM (inactive) | GI50 (HCT-15): 2210 nM | GI50 (HL-60): 1620 nM (inactive) | GI50 (HOP-18): 3150 nM (inactive) | GI50 (HOP-62): 14600 nM (inactive) | GI50 (HOP-92): 9180 nM (inactive) | GI50 (HT-29): 2450 nM (inactive) | GI50 (IGROV-1): 4060 nM (inactive) | GI50 (K562): 2680 nM (inactive) | GI50 (KM-20L2): 2750 nM (inactive) | GI50 (KM12): 2560 nM (inactive) | GI50 (LOX IMVI): 1230 nM (inactive) | GI50 (M19-MEL): 661 nM (active) | GI50 (MCF7): 1800 nM (inactive) | GI50 (MOLT-4): 1350 nM (inactive) | GI50 (NCI-H226): 4410 nM (inactive) | GI50 (NCI-H23): 1790 nM (inactive) | GI50 (NCI-H460): 3030 nM (inactive) | GI50 (NCI-H522): 1660 nM (inactive) | GI50 (NCI/ADR-RES): 4710 nM (inactive) | GI50 (OVCAR-3): 2770 nM (inactive) | GI50 (OVCAR-4): 2220 nM (inactive) | GI50 (OVCAR-5): 4190 nM (inactive) | GI50 (OVCAR-8): 2980 nM (inactive) | GI50 (RPMI-8226): 1240 nM (inactive) | GI50 (RXF 393): 4750 nM (inactive) | GI50 (SF-268): 2590 nM (inactive) | GI50 (SF-295): 2420 nM (inactive) | GI50 (SF-539): 3420 nM (inactive) | GI50 (SK-MEL-28): 8490 nM (inactive) | GI50 (SK-MEL-2): 3330 nM (inactive) | GI50 (SK-MEL-5): 1620 nM (inactive) | GI50 (SK-OV-3): 12200 nM (inactive) | GI50 (SN12C): 2280 nM (inactive) | GI50 (SNB-19): 11200 nM (inactive) | GI50 (SNB-75): 8930 nM (inactive) | GI50 (SNB-78): 5550 nM (inactive) | GI50 (SW-620): 2240 nM (inactive) | GI50 (U-251): 3660 nM (inactive) | GI50 (UACC-257): 1500 nM (inactive) | GI50 (UACC-62): 1140 nM (inactive) | GI50 (UO-31): 6220 nM (inactive) | GI50 (XF498): 10700 nM (inactive)

Cc1c2cc[n+](Cc3ccc(I)cc3)cc2c(C)c2c1[nH]c1ccccc12
GI50 (A498): 697 nM (active) | GI50 (A549): 849 nM (active) | GI50 (CAKI-1): 714 nM (active) | GI50 (CCRF-CEM): 448 nM (active) | GI50 (COLO 205): 610 nM (active) | GI50 (DLD-1): 940 nM (active) | GI50 (DMS-114): 605 nM (active) | GI50 (DMS-273): 506 nM (active) | GI50 (EKVX): 1190 nM (inactive) | GI50 (HCC 2998): 881 nM (active) | GI50 (HCT-116): 574 nM (active) | GI50 (HCT-15): 7800 nM | GI50 (HL-60): 488 nM (active) | GI50 (HOP-18): 1000 nM (active) | GI50 (HOP-62): 778 nM (active) | GI50 (HOP-92): 560 nM (active) | GI50 (HT-29): 857 nM (active) | GI50 (IGROV-1): 1100 nM (active) | GI50 (K562): 643 nM (active) | GI50 (KM-20L2): 748 nM (active) | GI50 (KM12): 402 nM (active) | GI50 (LOX IMVI): 2160 nM (inactive) | GI50 (M19-MEL): 254 nM (active) | GI50 (MCF7): 783 nM (active) | GI50 (MOLT-4): 574 nM (active) | GI50 (Malme-3M): 582 nM (active) | GI50 (NCI-H226): 552 nM (active) | GI50 (NCI-H23): 650 nM (active) | GI50 (NCI-H460): 281 nM (active) | GI50 (NCI-H522): 692 nM (active) | GI50 (NCI/ADR-RES): > 25000 nM (inactive) | GI50 (OVCAR-3): 791 nM (active) | GI50 (OVCAR-4): 546 nM (active) | GI50 (OVCAR-5): 1370 nM (inactive) | GI50 (OVCAR-8): 685 nM (active) | GI50 (RPMI-8226): 518 nM (active) | GI50 (RXF 393): 893 nM (active) | GI50 (SF-268): 495 nM (active) | GI50 (SF-295): 296 nM (active) | GI50 (SF-539): 1740 nM (inactive) | GI50 (SK-MEL-28): 1450 nM (inactive) | GI50 (SK-MEL-2): 614 nM (active) | GI50 (SK-MEL-5): 490 nM (active) | GI50 (SK-OV-3): 3840 nM (inactive) | GI50 (SN12C): 548 nM (active) | GI50 (SNB-19): 471 nM (active) | GI50 (SNB-75): 91.4 nM (active) | GI50 (SNB-78): 731 nM (active) | GI50 (SW-620): 912 nM (active) | GI50 (U-251): 210 nM (active) | GI50 (UACC-257): 646 nM (active) | GI50 (UACC-62): 1120 nM (active) | GI50 (UO-31): 3140 nM (inactive) | GI50 (XF498): 433 nM (active)
